Data published in patent US12502362B2, “Inhibitors of nucleotidyltransferase superfamily enzymes as antibiotics” (priority 2017, dated 2025).
Values after ≈ are worked out from the molar mass of the structure shown. Like-named read-outs stand apart in the source and are kept apart here.

Tests used:
[1] = test system: HepG2-derived hepatoblastoma cell line (HEPDES19); experiment: Cytotoxicity assay (CC50), MTS; type: cell-based, human; settings: HEPDES19 cells
Description: (§1) To further characterize the compounds, the minimal inhibitory concentration (MIC80) were determined for selected compounds. MIC80 is defined as the compound concentration at which ≥80% bacterial growth is inhibited compare to untreated controls. Meanwhile, for the selected compounds, cytotoxicity assays (CC50) were performed on a HepG2-derived hepatoblastoma cell line (HEPDES19). […] For CC50 evaluation, soluble tetrazolium dye (MTS) was used to measure mitochondrial toxicity in a human hepatoblastoma cell line (18). The bacteria (E. coli, S. saprophyticus and A. baumannii) used in MIC80 measurements were the same as that in the primary screening, but for Staphylococcus, S. aureus is used primarily because it is a common pathogen in Staphylococcaeae family, while S. saprophyticus is part of the normal human flora.

[2] = test system: S. aureus (ATCC 29213); experiment: MIC80 on S. aureus; type: cell-based, Staphylococcus aureus; settings: ≥80% growth inhibition; for MIC80 S. aureus: S. aureus ATCC 29213 (MSSA); for MIC80: Staphylococcus aureus, ATCC 29213 / MSSA, read-out: MIC80 S. aureus, S. aureus ATCC 29213 (MSSA)
Description: as §1

[3] = test system: E. coli (ATCC 35218); experiment: microbe, parasite or virus in culture; type: cell-based; settings: for MIC80 E. coli: E. coli ATCC 35218; for MIC80: Escherichia coli, ATCC35218, read-out: MIC80 E. coli, E. coli ATCC 35218
Description: as §1

[4] = Cytotoxicity assay (CC50), MTS; type: cell-based, human; settings: human, HepG2-derived hepatoblastoma cell line (HEPDES19), HEPDES19 cells
Description: as §1

[5] = test system: Acinetobacter baumannii (Abl, from a patient); experiment: microbe, parasite or virus in culture; type: cell-based; settings: for MIC80: Acinetobacter baumannii, read-out: MIC80 A. baumannii, A. baumannii Ab1, MDR patient isolate
Description: as §1

[6] = test system: Staphylococcus saprophyticus (ATCC BAA-750); experiment: MIC80 on S. saprophyticus; type: cell-based; settings: S. saprophyticus ATCC BAA-750, read-out: MIC80 S. sapro
Description: as §1

[7] = test system: S. aureus and/or S. saprophyticus; experiment: MIC80 on S. aureus and/or S. saprophyticus; type: cell-based; settings: read-out: MIC80 against S. aureus and/or S. saprophyticus
Description: as §1, with “(HEPDES19). […] For the MIC80 measurements, a 1.5 fold dilution series of the compounds was prepared in Mueller-Hinton II broth.” for “(HEPDES19).”, “flora. S. aureus (ATCC 29213) is methicillin-sensitive Staphylococcus aureus (MSSA) strain and it was used as a model strain to measure the MIC80.” for “flora.”

[8] = Staphylococcus saprophyticus, ATCCBAA750

With `O=C(Sc1cccccc1=O)c1ccc(C(F)(F)F)cc1` [Compound 682] the CC50 [1] was 82.9 µM, the “MIC80 S. aureus” value [2] was 19.8 µM (≈ 6.14 µg/mL) and the “MIC80 E. coli” value [3] was 66.7 µM (≈ 20.7 µg/mL).
With `Cc1cc(O)c(=O)c(O)cc1C(=O)C1CC1` [Compound 310] the CC50 [4] was > 50 µM, the “MIC80 A. baumannii” value ([5]; A. baumannii Ab1, MDR patient isolate) was 29.6 µM (≈ 6.52 µg/mL) and the MIC80 [5] was < 30 µM. For the same compound, the “MIC80 E. coli” value [3] was 29.6 µM (≈ 6.52 µg/mL), the MIC80 [3] was < 30 µM and the MIC80 [6, 8] was 44.4 µM (≈ 9.78 µg/mL).
In the case of `Cc1cccc(C(=O)Oc2cccccc2=O)c1` [Compound 283], the CC50 [1] is reported as ≥ 100 µM, the CC50 [4] is reported as > 50 µM and the MIC80 [2] is reported as 15.4 µM (≈ 3.7 µg/mL). For the same compound, the MIC80 [3] was > 100 µM and the MIC80 [7] was < 20 µM.
In the case of `Cc1cc(O)c(=O)c(O)cc1C(=O)c1cccs1` [Compound 308], the CC50 [1] is reported as 26 µM, the CC50 [4] is reported as < 50 µM and the MIC80 [2] is reported as 44.4 µM (≈ 11.6 µg/mL). The MIC80 [5] was 32.1 µM (≈ 8.42 µg/mL), the “MIC80 E. coli” value [3] was 24.7 µM (≈ 6.48 µg/mL) and the MIC80 [3] was < 30 µM. It also gave an MIC80 [6, 8] of 29.6 µM (≈ 7.76 µg/mL).
In the case of `O=C(Oc1cccccc1=O)c1ccc([N+](=O)[O-])cc1` [Compound 51], the CC50 [1] is reported as 56 µM, the CC50 [4] is reported as > 50 µM and the MIC80 [2] is reported as 16.5 µM (≈ 4.48 µg/mL). For the same compound, the MIC80 [3] was 167 µM (≈ 45.2 µg/mL), the MIC80 [7] was < 20 µM and the MIC80 [6, 8] was 15.1 µM (≈ 4.1 µg/mL).
For `O=c1cccccc1O` [Compound 53], the CC50 [1] was ≥ 100 µM, the “MIC80 S. aureus” value [2] was 11.7 µM (≈ 1.43 µg/mL) and the “MIC80 E. coli” value [3] was >100 µM. For the same compound, the MIC80 [6] was 8.8 µM (≈ 1.07 µg/mL).
In the case of `CC(C)C(CO)n1cc(C(=O)O)c(=O)c2cc(Cc3cccc(Cl)c3F)c(F)cc21` (stereo not drawn) [Compound 75], the CC50 [1] is reported as 28 µM, the “MIC80 S. aureus” value [2] is reported as 8.8 µM (≈ 3.84 µg/mL) and the “MIC80 E. coli” value [3] is reported as 100 µM (≈ 43.6 µg/mL). It also gave an MIC80 [6] of 15.1 µM (≈ 6.58 µg/mL).
With `Cc1cc(O)c(=O)c(O)cc1C(=O)c1ccccc1O` [Compound 311] the CC50 [1] was 32 µM, the CC50 [4] was < 50 µM and the MIC80 [2] was 66.7 µM (≈ 18.2 µg/mL). For the same compound, the MIC80 [5] was 44.4 µM (≈ 12.1 µg/mL), the “MIC80 E. coli” value [3] was 29.6 µM (≈ 8.06 µg/mL) and the MIC80 [3] was < 30 µM.
For `Cc1ccc(S(=O)(=O)Oc2cc(C(C)C)cccc2=O)cc1` [Compound 688], the CC50 [1] was 27.5 µM, the “MIC80 S. aureus” value [2] was 11.6 µM (≈ 3.69 µg/mL) and the “MIC80 E. coli” value [3] was >100 µM.
In the case of `O=c1cc(-c2ccccc2)c2cccnc2n1O` [Compound 154, 1-hydroxy-4-phenyl-1,8-naphthyridin-2-one], the CC50 [4] is reported as 4 µM, the “MIC80 E. coli” value [3] is reported as 21.9 µM (≈ 5.22 µg/mL) and the MIC80 [3] is reported as < 30 µM. For the same compound, the MIC80 [7] was < 20 µM and the MIC80 [6, 8] was 17.8 µM (≈ 4.24 µg/mL).
With `O=C(O)c1cn(Cc2cccc3ccccc23)c2ccccc2c1=O` [Compound 432] the MIC80 [2] was 13.2 µM (≈ 4.35 µg/mL) and the MIC80 [7] was < 20 µM.
